Source: patent US8513232B2, “Substituted spirocyclic piperidine derivatives as histamine-3 (H3) receptor ligands” (Cephalon, Inc., priority 2008, dated 2013)
Like-named read-outs stand apart in the source and are kept apart here.

Tests used:
human H3 receptor = biological target: T1, human H3 receptor (Homo sapiens, UniProt Q9Y5N1); assay: Human H3 radioligand binding ([3H]-N-alpha-methylhistamine, SPA)
T1 construct: expressed in transfected cells
How it was run: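 Compounds (0.01 nM-30 μM) competed with approximately 1 nM [3H]-N-alpha-methylhistamine for human H3 receptor in membranes of stably transfected CHO cells, 10 μg protein per well, in Tris-HCl pH 7.4/MgCl2/BSA buffer for 4 h at room temperature. Bound radioligand measured by scintillation proximity; 10 μM clobenpropit gave non-specific binding.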

[1] = biological target: T2, rat histamine H3 receptor (Rattus norvegicus, UniProt Q9QYN8); assay: Rat H3 radioligand binding ([3H]-N-alpha-methylhistamine, SPA)
T2 construct: encoding the entire 445-amino-acid rat histamine H3 receptor; expressed in transfected cells; membrane preparation
How it was run: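 SPA-bead binding assay using [3H]-N-alpha-methylhistamine (approximately 1 nM final) with test compounds from 0.01 nM to 30 μM. Rat H3 receptor membranes came from stably transfected CHO-A3 cells; incubation ran 4 h at room temperature, in the dark, in Tris pH 7.4 buffer with MgCl2 and BSA. Clobenpropit (10 μM) gave non-specific binding.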

[2] = Human H3 binding, Table B, Examples 136-362, read-out: hum H3 binding Ki
[3] = Rat H3 binding, Table B, Examples 136-362, read-out: rat H3 binding Ki
[4] = human H3 binding, Table D, read-out: Human H3 Ki
[5] = rat H3 binding, Table D, read-out: Rat H3 Ki
[6] = Table C, human H3 binding, read-out: Human H3 Ki
[7] = Table C, rat H3 binding, read-out: Rat H3 Ki
[8] = Table A, human H3 binding, read-out: Human Ki
[9] = Table A, rat H3 binding, read-out: Rat Ki

T1 sequence (Q9Y5N1 whole entry): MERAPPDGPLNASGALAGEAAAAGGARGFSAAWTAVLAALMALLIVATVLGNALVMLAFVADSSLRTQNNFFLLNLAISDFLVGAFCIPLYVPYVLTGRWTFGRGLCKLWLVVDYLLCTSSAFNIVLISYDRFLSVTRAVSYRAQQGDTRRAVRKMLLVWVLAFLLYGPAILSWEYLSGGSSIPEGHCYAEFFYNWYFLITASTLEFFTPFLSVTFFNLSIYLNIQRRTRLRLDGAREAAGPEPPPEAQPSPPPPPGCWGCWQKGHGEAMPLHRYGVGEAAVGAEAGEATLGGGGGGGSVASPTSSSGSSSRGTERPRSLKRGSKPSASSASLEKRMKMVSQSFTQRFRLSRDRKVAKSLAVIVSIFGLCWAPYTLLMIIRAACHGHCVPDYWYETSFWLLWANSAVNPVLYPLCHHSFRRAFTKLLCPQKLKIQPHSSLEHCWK
T2 sequence (Q9QYN8 whole entry): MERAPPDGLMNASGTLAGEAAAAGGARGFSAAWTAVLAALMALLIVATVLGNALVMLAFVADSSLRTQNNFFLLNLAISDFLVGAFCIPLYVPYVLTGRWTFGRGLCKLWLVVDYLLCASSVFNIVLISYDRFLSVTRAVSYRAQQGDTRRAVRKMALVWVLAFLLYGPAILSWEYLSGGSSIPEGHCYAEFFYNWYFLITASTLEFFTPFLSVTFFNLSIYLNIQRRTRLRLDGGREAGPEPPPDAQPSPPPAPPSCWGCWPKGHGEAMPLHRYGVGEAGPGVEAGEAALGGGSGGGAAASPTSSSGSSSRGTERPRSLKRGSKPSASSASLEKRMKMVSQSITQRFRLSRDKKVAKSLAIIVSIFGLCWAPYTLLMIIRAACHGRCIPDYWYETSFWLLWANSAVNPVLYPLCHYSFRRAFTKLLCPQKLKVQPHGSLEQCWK

Row | SMILES | melting point [°C] | Ki (human H3 receptor; [4]) [µM] | Ki [1, 5] [µM] | other results
1 | CC(C)OCCNC(=O)c1ccc(-c2ccc3c(c2)COC2(CCN(C4CCC4)CC2)O3)cc1 [Example 311] | 155.5 to 157.3 |  |  | Ki (human H3 receptor; [2]): < 0.2 µM; Ki [1, 3]: < 0.2 µM
2 | O=c1ccc(-c2ccc3c(c2)COC2(CCN(C4CCOC4)CC2)O3)c[nH]1 (stereo not drawn) [Example 729] | 222 to 226 | 0.2 to 1 | 0.2 to 1 | 
3 | O=C(N[C@@H]1CCOC1)c1ccc(-c2ccc3c(c2)COC2(CCN(C4CCC4)CC2)O3)cc1 [Example 346] | 198 to 199 |  |  | Ki (human H3 receptor; [2]): < 0.2 µM; Ki [1, 3]: < 0.2 µM
4 | c1cnc(N2CCN(c3ccc4c(c3)CCC3(CCN(C5CCC5)CC3)O4)CC2)cn1 [Example 370] | 168 to 169 |  |  | Ki (human H3 receptor; [6]): < 0.2 µM; Ki [1, 7]: < 0.2 µM
5 | c1cnc(N2CCN(c3ccc4c(c3)CCC3(CCN(C5CCC5)CC3)O4)CC2)nc1 [Example 369] | 156 to 157 |  |  | Ki (human H3 receptor; [6]): < 0.2 µM; Ki [1, 7]: < 0.2 µM
6 | O=C(NC1CCOCC1)c1ccc(COc2ccc3c(c2)CCC2(CCN(C4CCC4)CC2)O3)cc1 [Example 647] | 174 to 176 | < 0.2 | < 0.2 | 
7 | CN(C)C(=O)c1cccc(COc2ccc3c(c2)CCC2(CCN(C4CCC4)CC2)O3)c1 [Example 602] | 183 to 185 | < 0.2 | < 0.2 | 
8 | O=C(NC1CCOCC1)c1ccc(-c2ccc3c(c2)COC2(CCN(C4CCC4)CC2)O3)s1 [Example 631] | 209 to 211 | < 0.2 | < 0.2 | 
9 | CN(C)C(=O)c1ccc(-c2ccc3c(c2)COC2(CCN(C4CCC4)CC2)O3)cc1 [Example 29] | 187 to 190 |  |  | Ki (human H3 receptor; [8]): < 0.2 µM; Ki [1, 9]: < 0.2 µM
10 | COc1ccc(-c2ccc3c(c2)COC2(CCN(CC4CCOCC4)CC2)O3)cn1 [Example 716] | 151 to 153 | > 1 | > 1 | 
11 | O=c1oc2ccccc2n1-c1ccc2c(n1)COC1(CCN(C3CCC3)CC1)O2 [Example 161] | 67 to 70 |  |  | Ki (human H3 receptor; [2]): < 0.2 µM; Ki [1, 3]: 0.2 to 1 µM
12 | Cc1noc(CCc2ccc3c(c2)COC2(CCN(C4CCC4)CC2)O3)n1 [Example 676] | 74 to 76 | < 0.2 | < 0.2 | 
13 | COc1cnc(-c2ccc3c(c2)COC2(CCN(C4CCC4)CC2)O3)nc1 [Example 470] | 113 to 115 |  |  | Ki (human H3 receptor; read-out: Human H3 Ki): < 0.2 µM; Ki ([1]; read-out: Rat H3 kI): < 0.2 µM
14 | Cc1ccccc1-c1ccc2c(c1)COC1(CCN(C3CCC3)CC1)O2 [Example 138] | 241 to 243 |  |  | Ki (human H3 receptor; [2]): < 0.2 µM; Ki [1, 3]: < 0.2 µM
15 | CC(C)n1cc(-c2ccc3c(c2)COC2(CCN(C4CCC4)CC2)O3)ccc1=O [Example 719] | 176 to 177 | < 0.2 | < 0.2 | 
16 | O=S(=O)(C1CC1)N1CCC(Oc2ccc3c(c2)CCC2(CCN(C4CCC4)CC2)O3)CC1 [Example 437] | 233 to 235 |  |  | Ki (human H3 receptor; [6]): < 0.2 µM; Ki [1, 7]: < 0.2 µM
17 | O=C(NC[C@@H]1CCCO1)c1c(F)cc(-c2ccc3c(c2)COC2(CCN(C4CCC4)CC2)O3)cc1F [Example 599] | 142 to 145 | < 0.2 | < 0.2 | 
18 | CO[C@H]1CCN(C(=O)c2ccc(-c3ccc4c(c3)CCC3(CCN(C5CCC5)CC3)O4)cn2)C1 [Example 252] | 249 to 251 |  |  | Ki (human H3 receptor; [2]): < 0.2 µM; Ki [1, 3]: < 0.2 µM
19 | Cn1cc2c(n1)CCC(c1ccc3c(c1)COC1(CCN(C4CCC4)CC1)O3)C2 (stereo not drawn) [Example 469] | 138 to 140 |  |  | Ki (human H3 receptor; read-out: Human H3 Ki): < 0.2 µM; Ki ([1]; read-out: Rat H3 kI): < 0.2 µM
20 | CNC(=O)c1ccc(Nc2ccc3c(c2)COC2(CCN(C4CCC4)CC2)O3)cc1 [Example 285] | 206 to 208 |  |  | Ki (human H3 receptor; [2]): < 0.2 µM; Ki [1, 3]: < 0.2 µM
21 | O=C(c1cccc(-c2ccc3c(c2)OC2(CCN(C4CCC4)CC2)OC3)c1)N1CCOCC1 [Example 96] | 61 |  |  | Ki (human H3 receptor; [8]): 0.2 to 1 µM; Ki [1, 9]: 0.2 to 1 µM
22 | OC1(c2ccc3c(c2)COC2(CCN(C4CCC4)CC2)O3)COC1 [Example 505] | 180 to 183 |  |  | Ki (human H3 receptor; read-out: Human H3 Ki): < 0.2 µM; Ki ([1]; read-out: Rat H3 kI): < 0.2 µM
23 | COC1(c2ccc3c(c2)COC2(CCN(C4CCC4)CC2)O3)CCS(=O)(=O)CC1 [Example 542] | 199 to 201 |  |  | Ki (human H3 receptor; read-out: Human H3 Ki): < 0.2 µM; Ki ([1]; read-out: Rat H3 kI): < 0.2 µM
24 | CNC(=O)c1cc(-c2ccc3c(c2)CCC2(CCN(C4CCC4)CC2)O3)ccc1Cl [Example 582] | 89 to 91 | < 0.2 | < 0.2 | 

Row | SMILES | melting point [°C] | Ki (human H3 receptor; [4]) [µM] | Ki [1, 5] [µM] | other results
25 | CNC(=O)c1ccc(-c2ccc3c(c2)CC2(CCN(C4CCC4)CC2)O3)cc1 [Example 134, 1′-Cyclobutyl-spirobenzofuran-2(3H)-4′-piperidine-(5-(4-methylaminocarbamoylphenyl))] | 197 to 198 |  |  | Ki (human H3 receptor; [8]): < 0.2 µM; Ki [1, 9]: < 0.2 µM
26 | CNC(=O)c1cc(-c2ccc3c(c2)CCC2(CCN(C4CCC4)C2)O3)ccc1Cl (stereo not drawn) [Example 581] | 100 to 103 | < 0.2 | 0.2 to 1 | 
27 | c1cnc(Nc2ccc3c(c2)COC2(CCN(C4CCC4)CC2)O3)cn1 [Example 136] | 57 to 61 |  |  | Ki (human H3 receptor; [2]): < 0.2 µM; Ki [1, 3]: < 0.2 µM
28 | O=C(c1ccc(-c2ccc3c(c2)COC2(CCN(C4CCC4)CC2)O3)cn1)N1CC[C@@H](O)C1 [Example 173] | 100 to 101 |  |  | Ki (human H3 receptor; [2]): < 0.2 µM; Ki [1, 3]: < 0.2 µM
29 | CN1CCN(c2ccc3c(c2)COC2(CCN(C4CCC4)CC2)O3)C1=O [Example 82] | 180 to 181 |  |  | Ki (human H3 receptor; [8]): < 0.2 µM; Ki [1, 9]: < 0.2 µM
30 | O=C1N(c2ccccc2)CCN1c1ccc2c(c1)CCC1(CCN(C3CCC3)CC1)O2 [Example 229] | 182 to 185 |  |  | Ki (human H3 receptor; [2]): < 0.2 µM; Ki [1, 3]: < 0.2 µM
31 | OC(c1ccc2c(c1)COC1(CCN(C3CCC3)CC1)O2)C1CCCC1 (stereo not drawn) [Example 536] | 148 to 150 |  |  | Ki (human H3 receptor; read-out: Human H3 Ki): < 0.2 µM; Ki ([1]; read-out: Rat H3 kI): < 0.2 µM
32 | CC(C)NC(=O)c1ccc(-c2ccc3c(c2)COC2(CCN(C4CCC4)CC2)O3)cc1 [Example 301] | 221 to 222 |  |  | Ki (human H3 receptor; [2]): < 0.2 µM; Ki [1, 3]: < 0.2 µM
33 | CCc1nnc(COc2ccc3c(c2)CCC2(CCN(C4CCC4)CC2)O3)o1 [Example 678] | 170 to 172 | < 0.2 | < 0.2 | 
34 | CC(=O)Nc1ccc(-c2ccc3c(c2)COC2(CCN(C4CCC4)CC2)O3)cn1 [Example 46] | 186 to 187 |  |  | Ki (human H3 receptor; [8]): < 0.2 µM; Ki [1, 9]: < 0.2 µM
35 | CN(C)C(=O)N1CCN(c2ccc3c(c2)CCC2(CCN(C4CCC4)C2)O3)CC1 (stereo not drawn) [Example 339] | 231 to 233 |  |  | Ki (human H3 receptor; [2]): < 0.2 µM; Ki [1, 3]: < 0.2 µM
36 | c1ccc(COc2ccc(-c3ccc4c(c3)CCC3(CCN(C5CCC5)CC3)O4)cn2)cc1 [Example 533] | 115 to 117 |  |  | Ki (human H3 receptor; read-out: Human H3 Ki): < 0.2 µM; Ki ([1]; read-out: Rat H3 kI): < 0.2 µM
37 | O=C1CCC(c2ccc3c(c2)CCC2(CCN(C4CCC4)CC2)O3)CN1 (stereo not drawn) [Example 534] | 292 to 294 |  |  | Ki (human H3 receptor; read-out: Human H3 Ki): < 0.2 µM; Ki ([1]; read-out: Rat H3 kI): < 0.2 µM
38 | CC(C)NC(=O)c1ccc(-c2ccc3c(c2)COC2(CCN(C4CCC4)CC2)O3)cc1Cl [Example 596] | 186 to 187.5 | < 0.2 | < 0.2 | 
39 | NC(=O)c1cccc(-c2ccc3c(c2)COC2(CCN(C4CCC4)CC2)O3)c1 [Example 58] | 109.3 |  |  | Ki (human H3 receptor; [8]): < 0.2 µM; Ki [1, 9]: < 0.2 µM
40 | O=C(c1ccc(-c2ccc3c(c2)COC2(CCN(C4CCC4)CC2)O3)cc1)N1CC[C@@H](F)C1 [Example 69] | 185 to 186 |  |  | Ki (human H3 receptor; [8]): < 0.2 µM; Ki [1, 9]: < 0.2 µM
41 | OC1(c2ccc3c(c2)COC2(CCN(C4CCC4)CC2)O3)CCCC1 [Example 509] | 149 to 151 |  |  | Ki (human H3 receptor; read-out: Human H3 Ki): < 0.2 µM; Ki ([1]; read-out: Rat H3 kI): < 0.2 µM
42 | COCC1CCN(c2ccc3c(c2)COC2(CCN(C4CCC4)CC2)O3)CC1 [Example 632] | 92.3 to 94.2 | < 0.2 | < 0.2 | 
43 | O=C(Nc1ccc2c(c1)CCC1(CCN(C3CCC3)CC1)O2)c1cc(-c2ccccc2)ncn1 [Example 249] | 153 to 155 |  |  | Ki (human H3 receptor; [2]): < 0.2 µM; Ki [1, 3]: < 0.2 µM
44 | c1cc(-c2ccc3c(c2)COC2(CCN(C4CCC4)CC2)O3)co1 [Example 5] | 150 to 152 |  |  | Ki (human H3 receptor; [8]): < 0.2 µM; Ki [1, 9]: < 0.2 µM
45 | O=C(c1ccco1)N1CCN(c2ccc3c(c2)CCC2(CCN(C4CCC4)CC2)O3)CC1 [Example 387] | 133 to 135 |  |  | Ki (human H3 receptor; [6]): < 0.2 µM; Ki [1, 7]: < 0.2 µM
46 | Cc1cc(C(N)=O)ccc1-c1ccc2c(c1)COC1(CCN(C3CCC3)CC1)O2 [Example 693] | 180 to 182 | < 0.2 | < 0.2 | 
47 | CCS(=O)(=O)c1c[nH]c(=O)cc1-c1ccc2c(c1)COC1(CCN(C3CCC3)CC1)O2 [Example 793] | 190 to 192 | < 0.2 | < 0.2 | 
48 | O=C(N[C@H]1CCOC1)c1ccc(-c2ccc3c(c2)CCC2(CCN(C4CCC4)CC2)O3)cc1 [Example 580] | 196 to 198 | < 0.2 | < 0.2 | 
